Source: patent US20070049564A1 (Wyeth, priority 2005, published 2007)
Converted amounts (≈) assume the structure as drawn. Like-named read-outs stand apart in the source and are kept apart here.

Tests used:
[1] = tested on: S. pneumoniae* GC 4465; test: MIC, broth microdilution; conditions: Streptococcus pneumoniae, S. pneumoniae* GC 4465
Procedure: (§1) Antimicrobial susceptibility testing. The in vitro activities of the antibiotics are determined by the broth microdilution method as recommended by the National Committee for Clinical Laboratory Standards (NCCLS) (1). Mueller-Hinton II broth (MHBII)(BBL Cockeysville, Md.) is the medium employed in the testing procedures. Microtiter plates containing serial dilutions of each antimicrobial agent are inoculated with each organism to yield the appropriate density (10^5 CFU/ml) in a 100 μl final volume. The plates are incubated for 18-22 hours at 35° C. in ambient air.
(§2) Representative compounds were first incubated in mouse serum for an hour prior to the in vitro testing against a panel of selected gram-positive and gram-negative bacteria strains. All compounds were also pre-incubated in water for an hour prior to testing as control. Representative compounds of Formula I were incubated in human serum prior to MIC determination.

[2] = tested on: E. coli GC 6465; test: MIC, broth microdilution; conditions: Escherichia coli, GC6465, E. coli GC 6465
[3] = tested on: E. coli GC 2231; test: MIC, broth microdilution; conditions: Escherichia coli, GC2231, E. coli GC 2231
[4] = tested on: E. faecium GC 4556; test: MIC, broth microdilution; conditions: Enterococcus faecium, GC4556, E. faecium GC 4556
Procedure: as §1, §2

[5] = tested on: E. coli GC 2203; test: MIC, broth microdilution; conditions: Escherichia coli, GC2203, E. coli GC 2203
Procedure: Antimicrobial susceptibility testing. The in vitro activities of the antibiotics are determined by the broth microdilution method as recommended by the National Committee for Clinical Laboratory Standards (NCCLS) (1). Mueller-Hinton II broth (MHBII)(BBL Cockeysville, Md.) is the medium employed in the testing procedures. Microtiter plates containing serial dilutions of each antimicrobial agent are inoculated with each organism to yield the appropriate density (10^5 CFU/ml) in a 100 μl final volume. The plates are incubated for 18-22 hours at 35° C. in ambient air. […] Standard Pharmacological Test Procedures
Presented in Tables I-XIII are representative compounds of Formula I which were evaluated against a panel of 40 selected gram-positive and gram-negative bacteria strains by pre-incubation in water, mouse serum or human serum. Representative compounds were first incubated in mouse serum for an hour prior to the in vitro testing against a panel of selected gram-positive and gram-negative bacteria strains. All compounds were also pre-incubated in water for an hour prior to testing as control. Representative compounds of Formula I were incubated in human serum prior to MIC determination.

[6] = tested on: S. typhimurium GC 2172; test: MIC, broth microdilution; conditions: Salmonella enterica, TYPHIMURIUM, S. typhimurium GC 2172
Procedure: as §1
Representative compounds were first incubated in mouse serum for an hour prior to the in vitro testing against a panel of selected gram-positive and gram-negative bacteria strains. All compounds were also pre-incubated in water for an hour prior to testing as control.

[7] = tested on: E. coli GC 2234; test: MIC, broth microdilution; conditions: Escherichia coli, GC2234, E. coli GC 2234
[8] = tested on: E. coli GC 2235; test: MIC, broth microdilution; conditions: Escherichia coli, GC2235, E. coli GC 2235
[9] = tested on: E. coli GC 2272; test: MIC, broth microdilution; conditions: Escherichia coli, GC2272, E. coli GC 2272
[10] = tested on: S. aureus GC 1131; test: MIC, broth microdilution; conditions: Staphylococcus aureus, GC1131, S. aureus GC 1131
[11] = tested on: E. faecalis GC 2267; test: MIC, broth microdilution; conditions: Enterococcus faecalis, GC2267, E. faecalis GC 2267
[12] = tested on: S. aureus GC 6466; test: MIC, broth microdilution; conditions: Staphylococcus aureus, GC6466, S. aureus GC 6466
[13] = tested on: S. aureus GC 1079; test: MIC, broth microdilution; conditions: Staphylococcus aureus, GC1079, S. aureus GC 1079
[14] = tested on: E. coli GC 4560; test: MIC, broth microdilution; conditions: Escherichia coli, GC4560, E. coli GC 4560
[15] = tested on: E. coli GC 2236; test: MIC, broth microdilution; conditions: Escherichia coli, GC2236, E. coli GC 2236
[16] = tested on: S. aureus GC 6467; test: MIC, broth microdilution; conditions: Staphylococcus aureus, GC6467, S. aureus GC 6467
[17] = tested on: E. faecalis GC 4555; test: MIC, broth microdilution; conditions: Enterococcus faecalis, GC4555, E. faecalis GC 4555
[18] = tested on: S. epidermidis GC 4935; test: MIC, broth microdilution; conditions: Staphylococcus epidermidis, GC4935, S. epidermidis GC 4935
[19] = tested on: Staph.; test: Range of MIC for Staph. strains, including MRSA; conditions: Staphylococcus aureus, MRSA
Procedure: as §1, §2

[20] = tested on: E. coli GC 2233; test: MIC, broth microdilution; conditions: Escherichia coli, GC2233, E. coli GC 2233
[21] = read-out: Range of MIC, Staph (Mouse Serum)
[22] = read-out: Range of MIC, Staph (Water)

`CCCCN(CC(=O)Nc1cc(N(C)C)c2c(c1O)C(=O)C1=C(O)[C@]3(O)C(=O)C(C(N)=O)=C(O)[C@@H](N(C)C)[C@@H]3C[C@@H]1C2)C(=O)OCOC(=O)C(C)(C)C` [Example 13, ({[(2-{[(5aR,6aS,7S,10aS)-9-(aminocarbonyl)-4,7-bis(dimethylamino)-1,8,10a,11-tetrahydroxy-10,12-dioxo-5,5a,6,6a,7,10,10a,12-octahydrotetracen-2-yl]amino}-2-oxoethyl)(butyl)amino]carbonyl}oxy)methyl pivalate] showed an MIC ([1]; Mouse Serum pre-incubation) of 0.5 µg/mL (≈ 0.672 µM), an MIC ([1]; Water pre-incubation) of 0.5 µg/mL (≈ 0.672 µM) and an MIC ([2]; Mouse Serum pre-incubation) of 8 µg/mL (≈ 10.8 µM). The MIC ([2]; Water pre-incubation) was > 64 µg/mL, the MIC ([3]; Mouse Serum pre-incubation) was 2 µg/mL (≈ 2.69 µM) and the MIC ([3]; Water pre-incubation) was 16 µg/mL (≈ 21.5 µM). It also gave an MIC ([4]; Mouse Serum pre-incubation) of 2 µg/mL (≈ 2.69 µM), an MIC ([4]; Water pre-incubation) of 8 µg/mL (≈ 10.8 µM) and an MIC ([5]; Mouse Serum pre-incubation) of 2 µg/mL (≈ 2.69 µM). The MIC ([5]; Water pre-incubation) was 8 µg/mL (≈ 10.8 µM), the MIC ([6]; Mouse Serum pre-incubation) was 8 µg/mL (≈ 10.8 µM) and the MIC ([6]; Water pre-incubation) was 64 µg/mL (≈ 86 µM). It also gave an MIC ([7]; Mouse Serum pre-incubation) of 1 µg/mL (≈ 1.34 µM), an MIC ([7]; Water pre-incubation) of 8 µg/mL (≈ 10.8 µM) and an MIC ([8]; Mouse Serum pre-incubation) of 2 µg/mL (≈ 2.69 µM). It also gave an MIC ([8]; Water pre-incubation) of 8 µg/mL (≈ 10.8 µM), an MIC ([9]; Mouse Serum pre-incubation) of 2 µg/mL (≈ 2.69 µM) and an MIC ([9]; Water pre-incubation) of 8 µg/mL (≈ 10.8 µM). It also gave an MIC ([10]; Mouse Serum pre-incubation) of 2 µg/mL (≈ 2.69 µM), an MIC ([10]; Water pre-incubation) of 2 µg/mL (≈ 2.69 µM) and an MIC ([11]; Mouse Serum pre-incubation) of 4 µg/mL (≈ 5.38 µM). For the same compound, the MIC ([11]; Water pre-incubation) was 8 µg/mL (≈ 10.8 µM), the MIC ([12]; Mouse Serum pre-incubation) was 1 µg/mL (≈ 1.34 µM) and the MIC ([12]; Water pre-incubation) was 2 µg/mL (≈ 2.69 µM). The MIC ([13]; Mouse Serum pre-incubation) was 4 µg/mL (≈ 5.38 µM), the MIC ([13]; Water pre-incubation) was 4 µg/mL (≈ 5.38 µM) and the MIC ([14]; Mouse Serum pre-incubation) was 1 µg/mL (≈ 1.34 µM). The MIC ([14]; Water pre-incubation) was 4 µg/mL (≈ 5.38 µM), the MIC ([15]; Mouse Serum pre-incubation) was 2 µg/mL (≈ 2.69 µM) and the MIC ([15]; Water pre-incubation) was 8 µg/mL (≈ 10.8 µM). For the same compound, the MIC ([16]; Mouse Serum pre-incubation) was 4 µg/mL (≈ 5.38 µM), the MIC ([16]; Water pre-incubation) was 8 µg/mL (≈ 10.8 µM) and the MIC ([17]; Mouse Serum pre-incubation) was 2 µg/mL (≈ 2.69 µM). The MIC ([17]; Water pre-incubation) was 4 µg/mL (≈ 5.38 µM), the MIC ([18]; Mouse Serum pre-incubation) was 4 µg/mL (≈ 5.38 µM) and the MIC ([18]; Water pre-incubation) was 8 µg/mL (≈ 10.8 µM). For the same compound, the MIC ([19]; read-out: Minimum inhibitory concentration (MIC), Staph. (mouse serum)) was 1 to 4 µg/mL (≈ 1.34 to 5.38 µM), the MIC ([19]; read-out: Minimum inhibitory concentration (MIC), Staph. (water)) was 2 to 8 µg/mL (≈ 2.69 to 10.8 µM) and the MIC [19, 21] was 1 to 4 µg/mL (≈ 1.34 to 5.38 µM). The MIC [19, 22] was 2 to 8 µg/mL (≈ 2.69 to 10.8 µM), the MIC ([20]; Mouse Serum pre-incubation) was 2 µg/mL (≈ 2.69 µM) and the MIC ([20]; Water pre-incubation) was 8 µg/mL (≈ 10.8 µM).

For `CCCN(CC(=O)Nc1cc(N(C)C)c2c(c1O)C(=O)C1=C(O)[C@]3(O)C(=O)C(C(N)=O)=C(O)[C@@H](N(C)C)[C@@H]3C[C@@H]1C2)C(=O)OCc1ccccc1` [Example 14, benzyl 2-{[(5aR,6aS,7S,10aS)-9-(aminocarbonyl)-4,7-bis(dimethylamino)-1,8,10a,11-tetrahydroxy-10,12-dioxo-5,5a,6,6a,7,10,10a,12-octahydrotetracen-2-yl]amino}-2-oxoethyl(propyl)carbamate], the MIC ([1]; Mouse Serum pre-incubation) was 2 µg/mL (≈ 2.83 µM), the MIC ([1]; Water pre-incubation) was 4 µg/mL (≈ 5.67 µM) and the MIC ([2]; Mouse Serum pre-incubation) was > 64 µg/mL. For the same compound, the MIC ([2]; Water pre-incubation) was > 64 µg/mL, the MIC ([3]; Mouse Serum pre-incubation) was > 64 µg/mL and the MIC ([3]; Water pre-incubation) was > 64 µg/mL. For the same compound, the MIC ([4]; Mouse Serum pre-incubation) was 4 µg/mL (≈ 5.67 µM), the MIC ([4]; Water pre-incubation) was 8 µg/mL (≈ 11.3 µM) and the MIC ([5]; Mouse Serum pre-incubation) was 32 µg/mL (≈ 45.3 µM). For the same compound, the MIC ([5]; Water pre-incubation) was 64 µg/mL (≈ 90.7 µM), the MIC ([6]; Mouse Serum pre-incubation) was > 64 µg/mL and the MIC ([6]; Water pre-incubation) was > 64 µg/mL. For the same compound, the MIC ([7]; Mouse Serum pre-incubation) was > 64 µg/mL, the MIC ([7]; Water pre-incubation) was > 64 µg/mL and the MIC ([8]; Mouse Serum pre-incubation) was 32 µg/mL (≈ 45.3 µM). The MIC ([8]; Water pre-incubation) was 64 µg/mL (≈ 90.7 µM), the MIC ([9]; Mouse Serum pre-incubation) was > 64 µg/mL and the MIC ([9]; Water pre-incubation) was > 64 µg/mL. The MIC ([10]; Mouse Serum pre-incubation) was 1 µg/mL (≈ 1.42 µM), the MIC ([10]; Water pre-incubation) was 2 µg/mL (≈ 2.83 µM) and the MIC ([11]; Mouse Serum pre-incubation) was 2 µg/mL (≈ 2.83 µM). For the same compound, the MIC ([11]; Water pre-incubation) was 8 µg/mL (≈ 11.3 µM), the MIC ([12]; Mouse Serum pre-incubation) was 2 µg/mL (≈ 2.83 µM) and the MIC ([12]; Water pre-incubation) was 8 µg/mL (≈ 11.3 µM). For the same compound, the MIC ([13]; Mouse Serum pre-incubation) was 1 µg/mL (≈ 1.42 µM), the MIC ([13]; Water pre-incubation) was 2 µg/mL (≈ 2.83 µM) and the MIC ([14]; Mouse Serum pre-incubation) was 4 µg/mL (≈ 5.67 µM). For the same compound, the MIC ([14]; Water pre-incubation) was 4 µg/mL (≈ 5.67 µM), the MIC ([15]; Mouse Serum pre-incubation) was > 64 µg/mL and the MIC ([15]; Water pre-incubation) was > 64 µg/mL. It also gave an MIC ([16]; Mouse Serum pre-incubation) of 2 µg/mL (≈ 2.83 µM), an MIC ([16]; Water pre-incubation) of 4 µg/mL (≈ 5.67 µM) and an MIC ([17]; Mouse Serum pre-incubation) of 2 µg/mL (≈ 2.83 µM). It also gave an MIC ([17]; Water pre-incubation) of 8 µg/mL (≈ 11.3 µM), an MIC ([18]; Mouse Serum pre-incubation) of 8 µg/mL (≈ 11.3 µM) and an MIC ([18]; Water pre-incubation) of 8 µg/mL (≈ 11.3 µM). The MIC [19, 21] was 1 to 8 µg/mL (≈ 1.42 to 11.3 µM), the MIC [19, 22] was 2 to 8 µg/mL (≈ 2.83 to 11.3 µM) and the MIC ([20]; Mouse Serum pre-incubation) was > 64 µg/mL. For the same compound, the MIC ([20]; Water pre-incubation) was > 64 µg/mL.
